This note sets out measurements from patent US12441768B2, “Compositions and methods for treating endometriosis” (EndoMet Biosciences, Inc., priority 2018, dated 2025).

Data set [1] deals with Wnt-responsive promoter (TCF/LEF). The data set is described as follows: Wnt-dependent luciferase reporter assay. The format is cell-based, murine. In a few lines:
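Murine 3T3 fibroblasts carrying a TCF/LEF-driven luciferase reporter, stimulated with Wnt3a in the presence of increasing peptide concentrations or vehicle. Luminescence inhibition gave EC50 values in uM.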
On the technique in general: Reporter assays use an easily measured gene product as a stand-in for the process of interest.

A further data set concerns the target T1, β-catenin (Homo sapiens, UniProt P35222).
T1 sequence (P35222 1-781): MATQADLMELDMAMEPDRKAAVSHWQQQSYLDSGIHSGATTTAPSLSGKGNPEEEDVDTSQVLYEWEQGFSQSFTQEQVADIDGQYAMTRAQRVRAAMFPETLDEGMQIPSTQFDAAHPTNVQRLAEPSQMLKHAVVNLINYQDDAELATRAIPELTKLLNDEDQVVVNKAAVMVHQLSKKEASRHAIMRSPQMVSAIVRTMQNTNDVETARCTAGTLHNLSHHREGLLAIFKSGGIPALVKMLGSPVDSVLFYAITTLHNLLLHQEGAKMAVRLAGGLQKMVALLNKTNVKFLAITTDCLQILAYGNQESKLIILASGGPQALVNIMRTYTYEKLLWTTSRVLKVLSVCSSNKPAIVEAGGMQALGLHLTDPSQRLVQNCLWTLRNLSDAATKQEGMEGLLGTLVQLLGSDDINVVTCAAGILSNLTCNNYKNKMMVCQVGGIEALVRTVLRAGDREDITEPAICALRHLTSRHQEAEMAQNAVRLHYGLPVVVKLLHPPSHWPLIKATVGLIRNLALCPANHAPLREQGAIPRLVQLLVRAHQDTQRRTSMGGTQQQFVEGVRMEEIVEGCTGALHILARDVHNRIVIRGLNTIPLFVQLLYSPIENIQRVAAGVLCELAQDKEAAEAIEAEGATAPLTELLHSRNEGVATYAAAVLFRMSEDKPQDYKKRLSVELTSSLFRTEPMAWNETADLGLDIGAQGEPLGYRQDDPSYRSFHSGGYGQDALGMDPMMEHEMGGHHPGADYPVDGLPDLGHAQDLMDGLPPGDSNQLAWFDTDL
The data set can be described thus: KD50 measurement using competitive fluorescence polarization (FP) with labelled TCF4. The note with it: fluorescence polarization, β-catenin; for Kd: read-out: β-Cat FP KD. The format is binding. In a few lines:
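Competitive FP in which unlabelled inhibitor (10 nM to 30 uM dilution series) displaces 5 nM labelled TCF4 from 100 nM β-catenin, room temperature. Read-out ex 470 nm, em 520 nm; experiment repeated three times.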
Background: Polarisation of emitted light reports the rotation of a fluorescent probe.

For data set [2] the following is noted: % Viability non-Wnt responsive cells.

In general, EC50 refers to the concentration at which the effect is half-maximal. Low values mean a more potent agent, high ones a less potent agent. The Kd is a measure of binding affinity in units of concentration. By viability is commonly meant a read-out of living cells in per cent, often relative to untreated cells.

Where a SMILES comes first, the peptide text is derived from it.

The compound `CC[C@H](C)[C@@H]1NC(=O)[C@H](CC(C)C)NC(=O)[C@H](Cc2ccccc2)NC(=O)[C@H](Cc2c[nH]c3ccccc23)NC(=O)[C@@H](N)CC(=O)NCCCC[C@@H](C(=O)NCC(=O)O)NC(=O)[C@H](Cc2c[nH]c3ccccc23)NC(=O)[C@H](Cc2ccccc2)NC(=O)[C@H](CS)NC1=O` [compound 176] (HELM PEPTIDE1{D.W.F.L.I.C.F.W.K.G}$PEPTIDE1,PEPTIDE1,1:R3-9:R3$$$V2.0) yielded an EC50 in data set [1] of 7.5 to 15 µM. In addition, on β-catenin, the “β-Cat FP Hill slope” value amounted to 0.85 and the Kd was 10 to 30 µM. In addition, the viability in data set [2] was determined as 109%.

In data set [1], `CC[C@H](C)[C@@H]1NC(=O)[C@H](CC(C)C)NC(=O)[C@H](Cc2ccccc2)NC(=O)[C@H](Cc2c[nH]c3ccccc23)NC(=O)[C@H](CCSC)NC(=O)[C@@H](N)CC(=O)NCCCC[C@@H](C(=O)NCC(=O)O)NC(=O)[C@H](Cc2c[nH]c3ccccc23)NC(=O)[C@H](Cc2ccccc2)NC(=O)[C@H](CS)NC1=O` [compound 177] (HELM PEPTIDE1{D.M.W.F.L.I.C.F.W.K.G}$PEPTIDE1,PEPTIDE1,1:R3-10:R3$$$V2.0) came in with an EC50 of 7.5 to 15 µM. Besides, the Kd at β-catenin was greater than 30 µM. The viability in data set [2] turned out to be 98.6%.

In data set [1], `CC[C@H](C)[C@@H]1NC(=O)[C@H](CC(C)C)NC(=O)[C@H](Cc2ccccc2)NC(=O)[C@H](Cc2c[nH]c3ccccc23)NC(=O)[C@@H](N)CC(=O)NCCCC[C@@H](C(=O)NCC(=O)O)NC(=O)[C@H](Cc2c[nH]c3ccccc23)NC(=O)[C@H](C)NC(=O)[C@H](CS)NC1=O` [compound 178] (HELM PEPTIDE1{D.W.F.L.I.C.A.W.K.G}$PEPTIDE1,PEPTIDE1,1:R3-9:R3$$$V2.0) showed an EC50 of less than 7.5 µM. Further, the Kd on β-catenin is greater than 30 µM. Also, the viability in data set [2] was 91.8%.

`CC[C@H](C)[C@@H]1NC(=O)[C@H](CC(C)C)NC(=O)[C@H](Cc2ccccc2)NC(=O)[C@H](Cc2c[nH]c3ccccc23)NC(=O)[C@@H](N)CCCCNC(=O)CC[C@@H](C(=O)O)NC(=O)[C@H](Cc2c[nH]c3ccccc23)NC(=O)[C@H](Cc2ccccc2)NC(=O)[C@H](CS)NC1=O` [compound 179] (HELM PEPTIDE1{K.W.F.L.I.C.F.W.E}$PEPTIDE1,PEPTIDE1,1:R3-9:R3$$$V2.0) yielded an EC50 in data set [1] of less than 7.5 µM. Besides, at β-catenin, the “β-Cat FP Hill slope” value is reported as 1.01 and the Kd fell in the range of 1 to 10 µM. The viability in data set [2] was 90.9%.

As to `CC[C@H](C)[C@@H]1NC(=O)[C@H](CC(C)C)NC(=O)[C@H](Cc2ccccc2)NC(=O)[C@H](Cc2c[nH]c3ccccc23)NC(=O)[C@H](CCSC)NC(=O)[C@@H](N)CCCCNC(=O)CC[C@@H](C(=O)N[C@@H](Cc2c[nH]c3ccccc23)C(=O)NCC(=O)O)NC(=O)[C@H](CS)NC1=O` [compound 180] (HELM PEPTIDE1{K.M.W.F.L.I.C.E.W.G}$PEPTIDE1,PEPTIDE1,1:R3-8:R3$$$V2.0), the EC50 in data set [1] is less than 7.5 µM. For the same compound, at β-catenin, the Kd is greater than 30 µM. The viability in data set [2] was 103%.

For `CC[C@H](C)[C@@H]1NC(=O)[C@H](CC(C)C)NC(=O)[C@H]([C@@H](C)CC)NC(=O)[C@H](Cc2c[nH]c3ccccc23)NC(=O)[C@@H](N)CCCCNC(=O)CC[C@@H](C(=O)O)NC(=O)[C@H](Cc2c[nH]c3ccccc23)NC(=O)[C@H](Cc2ccccc2)NC(=O)[C@H](CO)NC1=O` [compound 182] (HELM PEPTIDE1{K.W.I.L.I.S.F.W.E}$PEPTIDE1,PEPTIDE1,1:R3-9:R3$$$V2.0), the EC50 in data set [1] fell in the range of 22.5 to 30 µM. For the same compound, at β-catenin, the “β-Cat FP Hill slope” value is reported as 1.06 and the Kd lay within 0.4 to 1 µM. Moreover, the viability in data set [2] worked out at 95.3%.

On to `CC[C@H](C)[C@@H]1NC(=O)[C@H](CC(C)C)NC(=O)[C@H](Cc2ccccc2)NC(=O)[C@H](Cc2c[nH]c3ccccc23)NC(=O)[C@@H](N)CCCCNC(=O)CC[C@@H](C(=O)O)NC(=O)[C@H](Cc2c[nH]c3ccccc23)NC(=O)[C@H](C)NC(=O)[C@H](CO)NC1=O` [compound 183] (HELM PEPTIDE1{K.W.F.L.I.S.A.W.E}$PEPTIDE1,PEPTIDE1,1:R3-9:R3$$$V2.0), for which the EC50 in data set [1] was less than 7.5 µM. For the same compound, on β-catenin, the “β-Cat FP Hill slope” value is listed as 0.7 and the Kd was in the range of 1 to 10 µM. The viability in data set [2] is 97%.

Take `CC[C@H](C)[C@@H]1NC(=O)[C@H](CC(C)C)NC(=O)[C@H]([C@@H](C)CC)NC(=O)[C@H](Cc2c[nH]c3ccccc23)NC(=O)[C@@H](N)CCCCNC(=O)CC[C@@H](C(=O)O)NC(=O)[C@H](Cc2c[nH]c3ccccc23)NC(=O)[C@H](C)NC(=O)[C@H](CO)NC1=O` [compound 184] (HELM PEPTIDE1{K.W.I.L.I.S.A.W.E}$PEPTIDE1,PEPTIDE1,1:R3-9:R3$$$V2.0): the EC50 in data set [1] is less than 7.5 µM. Further, at β-catenin, the “β-Cat FP Hill slope” value is given as 0.7 and the Kd is 10 to 30 µM. The viability in data set [2] is 95.2%.

The compound `CC[C@H](C)[C@@H]1NC(=O)[C@H](CC(C)C)NC(=O)[C@H](Cc2ccccc2)NC(=O)[C@H](Cc2c[nH]c3ccccc23)NC(=O)[C@@H](NC(C)=O)CCCCNC(=O)CC[C@@H](C(=O)O)NC(=O)[C@H](Cc2c[nH]c3ccccc23)NC(=O)[C@H](Cc2ccccc2)NC(=O)[C@H](CS)NC1=O` [compound 185] (HELM PEPTIDE1{[ac].K.W.F.L.I.C.F.W.E}$PEPTIDE1,PEPTIDE1,2:R3-10:R3$$$V2.0) yielded an EC50 in data set [1] of 22.5 to 30 µM. Besides, at β-catenin, the “β-Cat FP Hill slope” value came to 1.32 and the Kd is less than 0.4 µM. For the same compound, the viability in data set [2] is 87.8%.

`CC[C@H](C)[C@@H]1NC(=O)[C@H](CC(C)C)NC(=O)[C@H](Cc2ccccc2)NC(=O)[C@H](Cc2c[nH]c3ccccc23)NC(=O)[C@H](CCSC)NC(=O)[C@@H](NC(C)=O)CCCCNC(=O)CC[C@@H](C(=O)O)NC(=O)[C@H](Cc2c[nH]c3ccccc23)NC(=O)[C@H](Cc2ccccc2)NC(=O)[C@H](CS)NC1=O` [compound 186] (HELM PEPTIDE1{[ac].K.M.W.F.L.I.C.F.W.E}$PEPTIDE1,PEPTIDE1,2:R3-11:R3$$$V2.0) showed an EC50 in data set [1] greater than 30 µM. Moreover, on β-catenin, the “β-Cat FP Hill slope” value worked out at 1.07 and the Kd was 0.4 to 1 µM. In data set [2], the viability was determined as 96.4%.

For the compound `CC[C@H](C)[C@@H]1NC(=O)[C@H](CC(C)C)NC(=O)[C@H](Cc2ccccc2)NC(=O)[C@H](Cc2c[nH]c3ccccc23)NC(=O)[C@@H](NC(C)=O)CCCCNC(=O)CC[C@@H](C(=O)O)NC(=O)[C@H](Cc2c[nH]c3ccccc23)NC(=O)[C@H](C)NC(=O)[C@H](CO)NC1=O` [compound 187] (HELM PEPTIDE1{[ac].K.W.F.L.I.S.A.W.E}$PEPTIDE1,PEPTIDE1,2:R3-10:R3$$$V2.0), the EC50 in data set [1] lay in the range of 7.5 to 15 µM. Besides, at β-catenin, the “β-Cat FP Hill slope” value amounted to 0.7 and the Kd was 1 to 10 µM. Besides, the viability in data set [2] is 90.3%.

On to `CC[C@H](C)[C@@H]1NC(=O)[C@H](CC(C)C)NC(=O)[C@H]([C@@H](C)CC)NC(=O)[C@H](Cc2c[nH]c3ccccc23)NC(=O)[C@@H](NC(C)=O)CCCCNC(=O)CC[C@@H](C(=O)O)NC(=O)[C@H](Cc2c[nH]c3ccccc23)NC(=O)[C@H](C)NC(=O)[C@H](CO)NC1=O` [compound 188] (HELM PEPTIDE1{[ac].K.W.I.L.I.S.A.W.E}$PEPTIDE1,PEPTIDE1,2:R3-10:R3$$$V2.0), for which the EC50 in data set [1] is less than 7.5 µM. Further, at β-catenin, the “β-Cat FP Hill slope” value was found to be 0.7 and the Kd was in the range of 10 to 30 µM. Also, the viability in data set [2] came out at 97.6%.

`CC[C@H](C)[C@@H]1NC(=O)[C@H](CC(C)C)NC(=O)[C@H](Cc2ccccc2)NC(=O)[C@H](Cc2c[nH]c3ccccc23)NC(=O)[C@H](CCSC)NC(=O)CCCCCNC(=O)C[C@@H](C(=O)O)NC(=O)[C@H](Cc2c[nH]c3ccccc23)NC(=O)[C@H](Cc2ccccc2)NC(=O)[C@H](CS)NC1=O` [compound 189] (HELM PEPTIDE1{[O=C(CCCCCN[*:1])[*:2]].M.W.F.L.I.C.F.W.D}$PEPTIDE1,PEPTIDE1,1:R1-10:R3$$$V2.0) came in with an EC50 in data set [1] of less than 7.5 µM. At β-catenin, the “β-Cat FP Hill slope” value was determined as 1.69 and the Kd lay in the range of 0.4 to 1 µM. Moreover, the viability in data set [2] was determined as 99.5%.

`CC[C@H](C)[C@@H]1NC(=O)[C@H](CC(C)C)NC(=O)[C@H](Cc2ccccc2)NC(=O)[C@H](Cc2c[nH]c3ccccc23)NC(=O)[C@H](CCSC)NC(=O)CCCNC(=O)C[C@@H](C(=O)O)NC(=O)[C@H](Cc2c[nH]c3ccccc23)NC(=O)[C@H](C)NC(=O)[C@H](CS)NC1=O` [compound 191] (HELM PEPTIDE1{[O=C(CCCN[*:1])[*:2]].M.W.F.L.I.C.A.W.D}$PEPTIDE1,PEPTIDE1,1:R1-10:R3$$$V2.0) came in with an EC50 in data set [1] of 7.5 to 15 µM. Also, at β-catenin, the “β-Cat FP Hill slope” value was found to be 1.3 and the Kd lay in the range of 0.4 to 1 µM. For the same compound, the viability in data set [2] worked out at 99.1%.
